Entries after “also recorded” stand apart in the source; their conditions may differ.
B1: uricase: recombinant enzyme uricase (Fasturtec, Sanofi Synthelabo), degrades uric acid into soluble allantoin (protein, UniProt Q00511 2-302, looked up)
Uricase: SAVKAARYGKDNVRVYKVHKDEKTGVQTVYEMTVCVLLEGEIETSYTKADNSVIVATDSIKNTIYITAKQNPVTPPELFGSILGTHFIEKYNHIHAAHVNIVCHRWTRMDIDGKPHPHSFIRDSEEKRNVQVDVVEGKGIDIKSSLSGLTVLKSTNSQFWGFLRDEYTTLKETWDRILSTDVDATWQWKNFSGLQEVRSHVPKFDATWATAREVTLKTFAEDNSASVQATMYKMAEQILARQQLIETVEYSLPNKHYFEIDLSWHKGLQNTGKNAEVFAPQSDPNGLIKCTVGRSSLKSKL

Columns and labels:
[1] = test system: lung inflammation upon intranasal crystals; assay: Exogenous uric acid crystals-induced lung inflammation and remodeling in mice; assay type: in vivo
Procedure: (§1) Bleomycin sulfate (200-300 μg or 10-15 mg/kg) from Bellon Laboratories (Montrouge, France) in saline, uric acid or allopurinol crystals (100-1000 μg or 5-50 mg/kg) in saline or saline alone are given through the airways by nasal instillation in a volume of 40 μt, under light ketamine-xylasine anaesthesia. The number of cells, chemokines, cytokines and TIMP-1 in the bronchoalveolar space and in the lung were evaluated as described (3). Allopurinol (Sigma-Aldrich) was injected at 500 μg or 25 mg/kg subcutaneously in 0.1-ml sterile NaCl, uricase (Fasturtec, Sanofi Synthelabo) given at 4 μg or 0.2 mg/kg by nasal instillation in 40 μt, at the time of bleomycin administration, at 6 and 9 h. In some experiments, the IL-1Ra (Anakinra, Amgen) was injected at 200 μg or 10 mg/kg subcutaneously in 0.1-ml sterile NaCl, at the time of MSU crystals administration, at 2 and 4 h.
Uric acid or allopurinol crystals were obtained by dissolving 1.68 mg of powder in 0.01 M NaOH preheated to 70° C. and added as required to maintain pH between 7.1 and 7.2. The solution was filtered and incubated at room temperature under slowly and continuously agitation, until crystals have formed. Crystals were washed twice with ethanol 100%, dried, autoclaved and kept sterile. The weight of dry crystals was determined under sterile conditions, crystals are resuspended in PBS by sonication and examined under phase microscopy.
(§2) Bleomycin sulfate (10 mg/kg) from Bellon Laboratories, uric acid or allopurinol crystals (5-50 mg/kg) in saline or vehicle alone were administered by intranasal instillation under light ketamine-xylasine anesthesia, and BAL and lung tissue assayed after 6 h (for uric acid crystal) or 24 h (for bleomycin) for markers of inflammation including cell recruitment and in particular neutrophil influx, chemokine and cytokine levels including KC, IL-6 and IL-1β and 14 days later for markers of tissue remodeling such as gelatinases MMP9 and MMP2 and their inhibitor TIMP-1. […] IL-1Ra (Anakinra, Amgen) was injected at 10 mg/kg subcutaneously.
(§3) After incision of the trachea, a plastic cannula was inserted and airspaces were washed using […] of PBS solution, heated to 37° C. The rib cage was then gently massaged to enable maximum cell collection. The fluid was collected by careful aspiration. […] The samples collected were dispatched in 2 fractions: the first one (1 ml corresponding to the 2 first lavages) was used for mediator measurement and the second one for the cell determination (4 ml). The first fraction was centrifuged (600 g for 10 min) and supernatant was fractionated and kept at −80° C. until mediator determination. The cell pellet was then resuspended in 0.4 ml PBS and, pooled with the second fraction and maintained at 4° C. until cell determination.
(§4) Total cell count was determined in BAL fluid using a particle counter (Z2 Coulter, Beckman Coulter). Differential cell counts were performed on cytospin preparations (Cytospin 3, Thermo Shandon) after staining with 4 min May-Grünwald stain (MG-1L, Sigma chemical, Saint Louis, USA) and 8 min in 95% Giemsa stain (GS-500, Sigma chemical, Saint Louis, USA). Differential cell counts were made on 100 cells using standard morphological criteria.
(§5) IL-1β, KC, IL-6 and TIMP-1 levels in BAL fluid or lung homogenate were determined using ELISA assay kits according to manufacturer's instructions (Mouse DuoSet, R&D system, Minneapolis, USA).

[2] = test system: bleomycin-induced lung inflammation; assay: Bleomycin-induced acute lung inflammation in mice (24 h); assay type: in vivo; details: for Neutrophil recruitment in BALF / IL-1β production in lung: allopurinol 25 mg/kg s.c.; for Neutrophil recruitment in BALF: uricase 0.2 mg/kg (0, 6, 9 h) or z-YVAD-fmk 10 mg/kg i.p. (0, 4, 8 h); for Bleomycin-induced (acute) inflammation, overall: 24 h after BLM i.n., treated vs vehicle; for KC production in lung / TIMP-1 production in lung / IL-1β production in lung: lung homogenates 24 h after BLM 10 mg/kg i.n.; for KC production in lung / TIMP-1 production in lung: allopurinol 25 mg/kg s.c. or z-YVAD-fmk 10 mg/kg i.p.; for IL-1β production in lung: uricase 0.2 mg/kg or z-YVAD-fmk 10 mg/kg i.p.; for Uric acid levels in lung: allopurinol 25 mg/kg s.c. or uricase 0.2 mg/kg i.p. or i.n. at 0, 6 and 9 h; for Efficacy, repeated administrations versus higher doses: dose optimisation
Procedure: as §1, §2, §3
After BAL was performed, the whole lung removed and placed inside a microtube (Lysing matrix D, Q Bio Gene, Illkrich, France) with 1 ml of PBS, total lung tissue extract was prepared using a Fastprep® system (FP120, Q Bio Gene, Illkrich, France), the extract was then centrifuged and the supernatant stored at −80° C. before mediator measurement, MPO or collagen assay with Sircol Collagen Assay (France Biochem Division, France).
as §4, §5
Uric acid concentration was determined in bronchoalveolar lavages and lung homogenates using Amplex® Red Uric Acid/Uricase Assay Kit (Molecular Probe, Eugene). Briefly, uricase catalyzes the conversion of uric acid to allantoin, hydrogen peroxide (H2O2) and carbon dioxide. In the presence of horseradish peroxidase (HRP), H2O2 reacts stoichiometrically with Amplex Red reagent to generate the red-fluorescent oxidation product, resorufin, measured spectrophotometrically.

[3] = test system: bleomycin-induced repair and fibrosis; assay: Bleomycin-induced late inflammation, repair and fibrosis in mice (day 8/14); assay type: in vivo; details: for Lung fibrotic score (fibrosis with thickening of alveolar septae and inflammation, semi-quantitative) / Alveolar wall destruction, collagen deposition and lung fibrosis on lung sections / Pro-MMP-9 and active MMP-2 gelatinase activities in BALF (zymography) / Pulmonary alpha-I collagen mRNA content: day 14 after BLM 5 mg/kg i.n.; for Lung fibrotic score (fibrosis with thickening of alveolar septae and inflammation, semi-quantitative): Ashcroft score, two observers, vs B6 mice; for Alveolar wall destruction, collagen deposition and lung fibrosis on lung sections: CAB staining; for Pro-MMP-9 and active MMP-2 gelatinase activities in BALF (zymography): allopurinol 15 mg/kg s.c. or uricase 0.2 mg/kg i.p.; for Pulmonary alpha-I collagen mRNA content: real time quantitative PCR
Procedure: Mice were injected at day 0 with allopurinol (15 mg/kg, s.c.), uricase (0.2 mg/kg, i.p.) or saline, at 0, 6 and 9 h after BLM instillation (5 mg/kg, i.n.) and every second days during 8 or 14 days to evaluate remodeling and fibrosis. (A) Late inflammation measured as lymphocytes and neutrophils in the BALF at day 8. […] (D) Alpha1 (I) collagen I mRNA in lung was analyzed by real time quantitative polymerase chain reaction (PCR) amplification after uricase or allopurinol treatment 14 days after BLM administration. […] Chromotrope Aniline Blue (CAB) staining, 20× and 200× magnification. (F) The lesions induced by bleomycin were assessed semi-quantitatively by two pathologists as described (see Materials and methods). […] Results are expressed as mean lung fibrotic score±SD. Data represent mean values±SD from 3 independent experiments (n=6 mice per group).
as §2, §5
MMP-2 and MMP-9 levels were determined by gelatin zymography. Briefly, non-reduced supernatant samples of BAL fluid (15 μl) and standards (161-0305, Bio-Rad, Hercule, USA) were loaded onto 7% polyacrylamide gels (wt/vol) incorporating 0.1% (wt/vol) gelatin substrate. The MMP in the gelatinolytic bands were evaluated using as references recombinant murine Pro-MMP-9 (100 Kd) and recombinant murine Pro-MMP-2 (72 Kd). Proteins were subjected to electrophoresis at 20-30 mA for 3 h. The gel was then washed twice in 2.5% Triton (vol/vol), rinsed 3 times quickly with distillated water, and placed 3 times for 20 min in distillated water. Each different wash was performed under gentle stirring. Gels were incubated overnight at 37° C. in 50 mM Tris buffer (containing 5 mM CaCl2 and 2 μM ZnCL2). […] Only these MMP were quantified.
Quantification of alpha-I collagen was described previously (26). Briefly, frozen lung samples were ground to a fine powder, and homogenized in 2 ml of Trizol reagent (In vitrogen Life technology, Paisley, UK). After vigorous shaking, chloroform was added and the samples were centrifuged at 12,000 g for 20 min. Total RNA was precipitated with isopropanol and dissolved in RNAse-free water. RNAs were reverse-transcribed into cDNA using SuperScript™^II (Invitrogen Life technologies, Paisley, UK). Real-time quantitative PCR was performed by fluorescent dye SYBR Green methodology, using SYBR Green PCR Master Mix (Applied Biosystems) and the ABI Prism 7000 apparatus (perkin-Elmer, Foster city, CA, USA).
After BAL and lung perfusion, the large lobe was fixed in 4% buffered formaldehyde for standard microscopic analysis. 3-μm sections were stained with Hematoxylin and Eosin (H&E) or Chromotrope Aniline Blue (CAB) as described previously (3). The severity of the morphological changes (infiltration by neutrophils and mononuclear cells, destruction and thickening of the alveolar septae and fibrosis) were assessed semi-quantitatively using a numeric fibrotic scale (Ashcroft score) (27).

[4] = test system: bleomycin-induced lung inflammation; details: IL-1 receptor antagonist; published data (ref. 3), FIG. 1; cited from earlier work
[5] = crystals 15 mg/kg i.n., kinetics
[6] = 24 h after BLM 10 mg/kg i.n., vs vehicle

Molecule | Neutrophil recruitment in BALF [2, 6] | Bleomycin-induced (acute) inflammation, overall [2] | KC production in lung ([2]; vs vehicle) | TIMP-1 production in lung ([2]; vs vehicle) | IL-1β production in lung ([2]; vs vehicle) | Uric acid levels in lung [2, 6] | Efficacy, repeated administrations versus higher doses ([2]; data not shown) | Lung fibrotic score (fibrosis with thickening of alveolar septae and inflammation, semi-quantitative) [3] | Alveolar wall destruction, collagen deposition and lung fibrosis on lung sections [3] | Pro-MMP-9 and active MMP-2 gelatinase activities in BALF (zymography) [3] | Pulmonary alpha-I collagen mRNA content [3] | also measured
Oc1ncnc2[nH]ncc12 [allopurinol crystals, allopurinol] | – | – | – | – | – | – | – | – | – | – | – | Neutrophil recruitment into the BALF ([1]; 6 h after crystals instillation 15 mg/kg i.n.): only little neutrophil recruitment
O=c1[nH]c(=O)c2[nH]c(=O)[nH]c2[nH]1 [uric acid crystals, uric acid] | – | – | – | – | – | – | – | – | – | – | – | Time at which inflammation was resolved [1, 5]: 14 days; Time of maximum of inflammation (cell recruitment in BALF) [1, 5]: 6 h; Pulmonary TIMP-1 at day 14 ([1]; day 14 after crystals, data not shown): returned to basal levels; Cell recruitment in BALF (macrophages, neutrophils) ([1]; intranasal crystals, dose response): dose-dependent cell recruitment; Pulmonary TIMP-1 ([1]; lung homogenates after i.n. increasing doses of crystals): induced pulmonary TIMP-1 expression; also recorded: dose-dependently induced
z-YVAD-fmk | reduced | reduced | reduced | reduced | reduced | – | – | – | – | – | – | –
Oc1ncnc2[nH]ncc12 [allopurinol] | reduced | greatly inhibited | diminished | diminished | diminished | prevented the increase; also recorded: prevented uric acid increases | repeated administrations were more effective than higher doses | significantly reduced | significantly reduced | significantly reduced and less | inhibited | Total cell counts in BALF ([2]; 24 h after BLM 10 mg/kg i.n., allopurinol 25 mg/kg s.c. at 0, 6 and 9 h, vs vehicle): reduced; IL-1β, KC and TIMP-1 in the BALF ([2]; after BLM, allopurinol treatment, data not shown): diminished; KC production in lung ([2]; vs vehicle, listed as Allopurinol): reduced; Late lymphocyte and neutrophil recruitment in the BALF ([3]; day 8 after BLM 5 mg/kg i.n., allopurinol 15 mg/kg s.c. at 0, 6, 9 h and every second day): reduced; Late production of TIMP-1 in lung homogenates and BALF ([3]; day 8 after BLM 5 mg/kg i.n., allopurinol 15 mg/kg s.c., BALF data not shown): inhibited
Anakinra: IL-1 receptor antagonist, IL-1Ra (Anakinra, Amgen) | – | – | – | – | – | – | – | – | – | – | – | Inflammatory response to uric acid crystals (neutrophil influx in BAL) ([1]; 6 h after UA crystals 15 mg/kg i.n., anakinra 10 mg/kg): drastically reduced; Bleomycin-induced lung inflammation, overall [4]: attenuated
B1 | reduced | – | – | – | reduced | reduced | repeated administrations were more effective than higher doses | significantly reduced | significantly reduced | significantly reduced and less | inhibited | –
